We go through two molecules from patent US20240002936A1, “USE OF BRAIN ORGANOIDS AND SINGLE CELL GENOMICS TO UNDERSTAND AND TREAT NEURODEVELOPMENTAL AND NEUROPSYCHIATRIC DISORDERS” (President and Fellows of Harvard College, priority 2020, published 2024).

Test [1] deals with PGP1 SUV420H1 control and mutant organoids. Briefly: Calcium imaging of spontaneous neuronal activity in intact brain organoids. Type of test: cell-based, human. The conditions noted are these: 20 μM NBQX.
In the next test the test system is human brain organoids. Type of test: cell-based.

Consider `NS(=O)(=O)c1cccc2c1c([N+](=O)[O-])cc1[nH]c(=O)c(=O)[nH]c12` [NBQX, 2,3-dioxo-6-nitro-1,2,3,4-tetrahydrobenzo[f]quinoxaline-7-sulfonamide], for which, in test [1] (PGP1 SUV420H1+/- mutant organoids), the “calcium activity after blockade of excitatory synapses with NBQX, SUV420H1 mutant organoids” value was “no calcium transients”. Further, the “calcium activity after blockade of excitatory synapses with NBQX, control organoids” value in test [1] (PGP1 control organoids) is given as “residual uncorrelated activity”. For the same molecule, the “network bursting upon bath application of NBQX” value in test [1] (four month organoids (128 d.i.v.)) is listed as “abolished”.

Regarding `NC1=N[C@H](O)[C@H]2[C@H]3O[C@]4(O)O[C@@H]([C@@H](O)[C@@]2(N1)[C@@H]4O)[C@]3(O)CO` [TTX, tetrodotoxin], the “trains of action potentials composing network bursting, sensitivity to TTX” value in the test with human brain organoids was “sensitive”.
